Measured values published in ChEMBL document CHEMBL3608278 (J Med Chem, 2015).
Bridge positions count the residues as written; N and C are the ends. Square brackets hold non-standard residues; d marks the D form. Peptide text beside a SMILES is read from it. 1Nal = N[C@@H](Cc1cccc2ccccc12)C(=O)O

Experiments:
[1] = Half life in rat; assay type: ADME, organism-based; settings: in vivo
[2] = target: T1, Potassium voltage-gated channel subfamily A member 3 (Homo sapiens, UniProt P22001); set-up: species or system Blood
T1 sequence (P22001 whole entry): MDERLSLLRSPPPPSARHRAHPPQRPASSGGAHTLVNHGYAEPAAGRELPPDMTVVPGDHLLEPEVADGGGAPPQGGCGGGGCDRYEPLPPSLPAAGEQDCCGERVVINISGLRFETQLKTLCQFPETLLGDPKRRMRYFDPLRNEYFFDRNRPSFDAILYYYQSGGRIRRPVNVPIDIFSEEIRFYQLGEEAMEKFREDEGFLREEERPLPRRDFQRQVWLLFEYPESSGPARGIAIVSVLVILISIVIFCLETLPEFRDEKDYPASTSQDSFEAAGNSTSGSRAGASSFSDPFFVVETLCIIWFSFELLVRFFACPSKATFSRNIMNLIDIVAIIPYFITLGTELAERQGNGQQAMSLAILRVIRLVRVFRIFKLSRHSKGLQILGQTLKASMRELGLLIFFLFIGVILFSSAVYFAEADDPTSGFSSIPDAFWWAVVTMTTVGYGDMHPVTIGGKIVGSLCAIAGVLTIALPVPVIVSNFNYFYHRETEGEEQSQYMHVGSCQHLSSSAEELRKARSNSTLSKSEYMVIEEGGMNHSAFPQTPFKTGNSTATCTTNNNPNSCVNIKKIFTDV

[3] = target: T1, Potassium voltage-gated channel subfamily A member 3; assay type: cell-based, CHO-K1
[4] = target: T1, Potassium voltage-gated channel subfamily A member 3; assay: cell-based; set-up: species or system Blood

CC[C@H](C)[C@@H]1NC(=O)[C@@H](NC(=O)[C@H](CO)NC(=O)[C@@H](N)CCCNC(=N)N)CSSC[C@@H](C(=O)O)NC(=O)[C@H]([C@@H](C)O)NC(=O)CNC(=O)[C@@H]2CSSC[C@@H]3NC(=O)[C@H](CCC(N)=O)NC(=O)[C@H](Cc4ccccc4)NC(=O)[C@H](C)NC(=O)[C@H]([C@@H](C)O)NC(=O)[C@H](CSSC[C@H](NC(=O)[C@H](Cc4ccccc4)NC(=O)[C@H](CO)NC(=O)[C@H](CC(C)C)NC(=O)[C@H](CCCNC(=N)N)NC(=O)[C@H](Cc4ccc(O)cc4)NC(=O)[C@H](CCCCN)NC(=O)[C@H](CCSC)NC(=O)[C@H](CO)NC(=O)[C@H](Cc4cnc[nH]4)NC(=O)[C@H](CCCCN)NC3=O)C(=O)N[C@@H](CCCNC(=N)N)C(=O)N[C@@H](CCCCN)C(=O)N[C@@H]([C@@H](C)O)C(=O)N2)NC(=O)[C@H](CCCNC(=N)N)NC(=O)[C@H](CO)NC(=O)[C@H](CCCCN)NC(=O)[C@@H]2CCCN2C(=O)[C@H]([C@@H](C)CC)NC(=O)[C@H]([C@@H](C)O)NC(=O)[C@H](CC(=O)O)NC1=O
half-life [1]: 20 min

CC[C@H](C)[C@@H]1NC(=O)[C@@H](NC(=O)[C@H](CO)NC(=O)[C@@H](N)CCCNC(=N)N)CSSC[C@@H](C(=O)O)NC(=O)[C@H]([C@@H](C)O)NC(=O)CNC(=O)[C@@H]2CSSC[C@@H]3NC(=O)[C@H](CCC(N)=O)NC(=O)[C@H](Cc4ccccc4)NC(=O)[C@H](Cc4cccc5ccccc45)NC(=O)[C@H]([C@@H](C)O)NC(=O)[C@H](CSSC[C@H](NC(=O)[C@H](Cc4ccccc4)NC(=O)[C@H](CO)NC(=O)[C@H](CC(C)C)NC(=O)[C@H](CCCNC(=N)N)NC(=O)[C@H](Cc4ccc(O)cc4)NC(=O)[C@H](CCCCN)NC(=O)[C@H](CCSC)NC(=O)[C@H](CO)NC(=O)[C@H](Cc4cnc[nH]4)NC(=O)[C@H](CCCCN)NC3=O)C(=O)N[C@@H](CCCNC(=N)N)C(=O)N[C@@H](CCCCN)C(=O)N[C@@H]([C@@H](C)O)C(=O)N2)NC(=O)[C@H](CCCNC(=N)N)NC(=O)[C@H](CO)NC(=O)[C@H](CCCCN)NC(=O)[C@@H]2CCCN2C(=O)[C@H]([C@@H](C)CC)NC(=O)[C@H]([C@@H](C)O)NC(=O)[C@H](Cc2cccc3ccccc23)NC1=O (H-RSCI[1Nal]TIPKSRCT[1Nal]FQCKHSMKYRLSFCRKTCGTC-OH; disulfide 3-35, 12-28, 17-32)
IC50 [2]: 0.11 nM
IC50 [3]: 0.039 nM
IC50 [4]: 0.089 nM
